Test results published in patent publication US6630570B1, “Short-chain peptide-dye conjugates as contrast media for optical diagnosis” (priority 1999, dated 2003).
“Also recorded” adds a separate entry of the source. No end group written: not given here.

Tests used:
HT29-tumor = test: In-vivo fluorescence imaging in tumor-carrying nude mice, HT29 tumor; conditions: 0.1 μmol/kg intravenously, one hour after administration
From the text: The imaging properties of the compounds according to the invention were studied in vivo after injection into tumor-carrying nude mice. […] The fluorescence of the substances was excited by irradiation of animals with near-infrared light of wavelength 640 nm (indodicarbocyanines) or 740 nm (indotricarbocyanines), which was produced with an Nd:YAG laser. The fluorescence radiation was detected at a wavelength of >700 nm or >800 nm by an intensified CCD-camera, and the fluorescence images were stored digitally.

RIN38-VIP1-cells = test: Cell imaging by fluorescence microscopy, RIN38-VIP1 cells; type: cell-based, rat; conditions: 10 μM
Procedure: (§1) The binding and imaging of the compounds according to the invention were studied in vitro in human tumor cells, and the receptors for vaso-active intestinal peptide and/or somatostatin and/or neurotensin were expressed. To this end, 5×10^5 tumor cells were incubated in 1.5 ml of medium, which contained the test substance. Different concentrations of the substances (10 nM-10 μM) were used, and the incubation period varied (1 minute-24 hours). After the incubation, the cells were set, and microscopic preparations were produced. The evaluation was carried out on a Zeiss Axiovert 135-fluorescence microscope, which was equipped with a Cy7-(Exciter HQ 710/70 nm, emitter 810/90 nm, beam splitter 750 nm LP), Cy5-(exciter 575-625 nm, emitter 660-710 nm BP, beam splitter 645 nm) and Cy3-filter set (exciter 546/12 nm, emitter 590 nm LP, beam splitter 580 nm). From all preparations, white light and fluorescence images were recorded with a CCD-camera (Visitron RTE/CCD-576) and digitally stored.

HT29 cells = test: Cell imaging by fluorescence microscopy, HT29 cells; type: cell-based, human; conditions: 10 μM, 30 minutes of incubation, Cy7-filter set
Procedure: as §1

(ξ-Amino-indotricarbocyanine)-Lys^25-VIP (14-25)-conjugate (RKQMAVKKYLNK(indotricarbocyanine)) [conjugate 24]
increase in fluorescence intensity in the tumor relative to the contralateral flank (HT29-tumor; HT29 tumor in right rear flank): ~1.5 fold
fluorescence outside the tumor (remainder of the body, kidneys) (HT29-tumor; HT29 tumor mouse): increased fluorescence signal in the kidneys
fluorescence image of the cells (pattern, correlation with white light image) (RIN38-VIP1-cells; Cy7-filter set): homogeneous, intracellular near-nucleus fluorescence

Indotricarbocyanine-VIP (1-28)-conjugate (HSDAVFTDNYTRLRKQMAVKKYLNSILN; ends and bridges not checked; also: indotricarbocyanine conjugate, position not given here) [conjugate 16]
fluorescence image of the cells (pattern, correlation with white light image) (HT29 cells): largely homogeneous fluorescence dispersed over the cells; also recorded: areas of increased signals were visible, which can be associated with vesicular compartments

Indocarbocyanine-VIP (1-28)-conjugate (HSDAVFTDNYTRLRKQMAVKKYLNSILN; ends and bridges not checked; also: indocarbocyanine conjugate, position not given here) [conjugate 14]
fluorescence image of the cells (pattern) (RIN38-VIP1-cells; Cy3-filter set): intracellular fluorescence areas with a vesicular pattern in the membrane area of the cell

Indotricarbocyanine-D-VIP (14-24)-conjugate (RKQMAVKKYLN; not fully specified; also: indotricarbocyanine dye conjugate, attachment site not given here) [conjugate 25]
fluorescence image of the cells (pattern, correlation with white light image) (HT29 cells): Fluorescence dispersed homogeneously over the cells, good correlation with the white light image
